Measurements from ChEMBL document CHEMBL1125802, “Isolation and structure of the cell growth inhibitory constituents from the western Pacific marine sponge Axinella sp” (1991).
Converted amounts (≈) assume the structure as drawn. Values belong to the molecule of their own block, whether it stands above or below them. Where a SMILES comes first, the peptide text is derived from it.

Legend:
P388 [1] = test: Effect on change in life span of P388 lymphocytic leukemia (PS system) cell growth at 100 mg/kg; type: functional, Mus musculus
P388 [2] = test: Effect on P388 lymphocytic leukemia (PS system) cell growth; type: functional; details: Mus musculus, read-out: ED50 (the source's name)
P388 [3] = test: Effect on P388 lymphocytic leukemia (PS system) cell growth […]; type: functional; details: Mus musculus, read-out: ED50 (the source's name)
P388 [4] = test: T/C at 25 mg/kg; type: functional, Mus musculus
P388 [5] = test: T/C at 150 ug/kg; type: functional, Mus musculus

SMILES: CC(C)O.ClCCl
Life span (P388 [1]): 10%
EC50 (P388 [2]): 2.5 µg/mL

EC50 (P388 [3]): 0.21 µg/mL (≈ 0.279 µM)
SMILES: CC(C)[C@@H]1NC(=O)[C@H](Cc2ccccc2)NC(=O)[C@@H]2CCCN2C(=O)[C@H](CC(N)=O)NC(=O)[C@H](C(C)C)NC(=O)[C@@H]2CCCN2C(=O)[C@H](C(C)C)NC1=O (cyclo(FVVPVNP))

SMILES: C=C1C[C@@H]2CC[C@@]34C[C@H]5O[C@H]6[C@@H](O3)[C@H]3O[C@H](CC[C@@H]3O[C@H]6[C@H]5O4)CC(=O)O[C@@H]3[C@@H](C)[C@@H]4O[C@@H]5C[C@]6(C[C@@H]7O[C@]8(C[C@H](C)[C@@H]9O[C@H]([C@@H](O)C[C@@H](O)CO)C[C@@H]9O8)C[C@H](C)[C@@H]7O6)O[C@@H]5C[C@@H]4O[C@H]3C[C@H]3O[C@@H](CC[C@@H]1O2)C[C@@H](C)C3=C [HALICHONDRIN B]
T/C (P388 [4]): 238

SMILES: C=C1C[C@@H]2CC[C@@]34C[C@H]5O[C@H]6[C@@H](O3)[C@H]3O[C@H](CC[C@@H]3O[C@H]6[C@H]5O4)CC(=O)O[C@@H]3[C@@H](C)[C@@H]4O[C@@H]5C[C@]6(C[C@@H]7O[C@]8(C[C@H](C)[C@@H]9O[C@@H]%10CC(C(O)CO)O[C@@H]%10C[C@@H]9O8)C[C@H](C)[C@@H]7O6)O[C@@H]5C[C@@H]4O[C@H]3C[C@H]3O[C@@H](CC[C@@H]1O2)C[C@@H](C)C3=C (stereo not given in full) [HOMOHALICHONDRIN B]
T/C (P388 [5]): 285
